# From patent publication US8198231B2, “Compositions and methods for treatment of staphylococcal infection while suppressing formation of antibiotic-resistant strains” (priority 1999, dated 2012)
# Key:
# [1] = test system: strains 27619, Col, 27227 and VA348; experiment: Checkerboard susceptibility testing of lysostaphin and oxacillin; format: cell-based; settings: oxacillin in concentrations up to 1 μg/ml; all strains tested
# Description: Checkerboard susceptibility testing was conducted to determine whether simultaneous administration of lysostaphin and oxacillin (a β-lactam) would be effective in suppressing the development of resistance. Oxacillin concentrations varied between 0.0156 μg/ml and 1 μg/ml. Lysostaphin concentrations varied between 0.00048 and 0.9 μg/ml. Four strains were tested for evidence of synergy between lysostaphin and oxacillin; 27619, Col, 27227 and VA348.
# [2] = test system: staphylococcal infected rabbits; experiment: Rabbit model of aortic valve endocarditis; format: in vivo
# From the text: The simultaneous treatment of staphylococcal infection with suppression of resistant strain formation is an exciting and widely useful invention nowhere predicted in the art. This invention offers the possibility of treating staphylococcal infections while suppressing the generation of strains resistant to any or all active agents administered.
# [3] = lysostaphin 1 mg/kg bid (low dose), alone or together with nafcillin
substance,measurement,setting,value
lysostaphin,MIC of lysostaphin in the presence of oxacillin,[1],unchanged
same,Bacterial counts in kidneys,[2]; [3],high counts
same,Bacterial counts in vegetations,[2]; [3],high counts
same,Recovery of resistant colonies/strains,[2]; [3],recovery of a number of resistant colonies
same,Minimum dose for sterilization,[2]; lysostaphin alone,5 mg/kg tid
